Test [1] has as its system BALB/c mice (depressive-like behavior). The test can be described thus: Tail Suspension Test (TST) after oral treatment, intact and vagotomized mice. The format is in vivo. The following applies: for effect on depressive and anxiety behavior in vagotomized mice: sub-diaphragmatic vagotomy prior to oral administration; for dependency of the effect on the vagus nerve: vagotomized mice compared to mice with an intact vagus nerve; for depressive and anxiety behavior in mice: oral administration, intact vagus nerve. As to the method:
BALB/c mice were orally fed antidepressants fluoxetine (18 mg/kg per day), sertraline (6 mg/kg per day) and bupropion (WELLBUTRIN®) (6 mg/kg per day) in the drinking water for 14 days, or JB-1 (2.5-4×10^9 bacteria/day) in the drinking water for 28 days.
1 day following oral treatments with the antidepressants, the BALB/c mice were tested for depressive-like behavior with the tail suspension test. Mice were removed from the colony room and moved to a behavioral testing room where they were allowed to habituate for 30 min. Following this period, mice were suspended by the tail using laboratory tape measured to 17 cm (Can et al., Journal of Visualized Experiments 59: e3769, 2012) from a suspension bar in a position whereby they could not escape or hold on to any surfaces. 2 cm of tape was affixed to the mouse tail with the remaining 15 cm used for suspension of the mouse. Animals were left suspended for a period of 6 mins. Animal behavior was video recorded and scored by a blinded observer for freezing behavior. Freezing was calculated as a percentage of total time. Following behavioral testing mice were returned to the housing room and resumed oral treatments for the duration of the study.
The Tail Suspension Test is a simple screening test for the behavioral effects of antianxiety agents and antidepressants in rodents. This test assesses the inter-individual differences in responses to stressful situations measured by duration of immobility.

The test system of test [2] is individual single vagal fibers (mesenteric nerve bundle of jejunal segment). As to the kind of experiment: Ex vivo vagal nerve fiber recording, test substance in lumen of jejunal segment, post hoc single unit burst analysis. The arrangement: species or system BALB/c mice. The following applies: for Average inter-pulse duration, lower 95% CI / Average inter-pulse duration, upper 95% CI / Burst duration, lower 95% CI / Burst duration, upper 95% CI / Inter-burst duration, lower 95% CI / Inter-burst duration, upper 95% CI / Inter-pulse duration within bursts, lower 95% CI / Inter-pulse duration within bursts, upper 95% CI: drug in lumen; for Fraction average inter-pulse duration / Fraction burst duration / Fraction inter-burst duration / Fraction inter-pulse duration within bursts: fractional change (treatment−control)/control; for Fraction average inter-pulse duration: luminal fluoxetine 30 μM, sertraline 10 μM, bupropion 10 μM, JB-1 10^9 cfu/mL, squalamine 10 μM; for Fraction burst duration / Fraction inter-burst duration / Fraction inter-pulse duration within bursts: same luminal concentrations. The method, then:
Adult BALB/c mice were killed by cervical dislocation. Then a 2-3 cm long jejunal segment with attached mesenteric tissue was removed and the oral and anal ends of the jejunal segment were cannulated with plastic tubing, gently emptied of contents by perfusing the lumen with Krebs buffer using a 3 mL plastic syringe whose tip was inserted into the oral opening. The cleaned jejunal segment was placed into a polystyrene petri dish (Falcon 351006, 50 mm×9 mm, Corning, N.Y., USA) filled with Krebs buffer of the following composition (in mM): 118 NaCl, 4.8 KCl, 25 NaHCO3, 1.0 NaH2PO4, 1.2 MgSO4, 11.1 glucose, and 2.5 CaCl2) bubbled with carbogen (95% 02 and 5% 002). The bottom of the dish was previously lined 1-2 mm deep with cured silicone elastomer SYLGARD®, Dow Corning, MI, USA.
Next the mesenteric nerve bundle was isolated by careful dissection under a stereomicroscope (Leika) using pointed number 5 forceps (Fine Science Tools), and the dish and contents were transferred to an inverted microscope (Nikon).
The gut segment and attached mesenteric tissue was then pinned linearly, without stretching, from oral to anal in the dish by pushing fine insect pins through the adherent mesentery into the silicone elastomer SYLGARD®. The lumen was gravity perfused (1 ml/min) at room temperature (20-25° C.), with oxygenated Krebs buffer and using several Mariotti bottles (McCarthy, Science 80: 100, 1934) attached to a plastic manifold (World Precision Instruments, Sarasota, Fla., USA). The serosal compartment was separately perfused with pre-warmed (35° C.) Krebs buffer at 4 ml/min. 3 μM nicardipine hydrochloride was added to the latter Krebs buffer to paralyze the smooth muscle to isolate chemosensory afferent signals from motility-related vagal responses (Perez-Burgos et al., Am J Physiol Gastrointest Liver Physiol 304: G211-220, 2013).
The nerve bundle was gently sucked onto a glass pipette attached to a patch-clamp electrode holder (CV-7B; Molecular Devices, Sunnyvale, Calif.), and extracellular nerve recordings were performed using a Multi-Clamp 700B amplifier and Digidata 1440A signal converter (Molecular Devices). Electrical signals were bandpass-filtered at 0.1-2 kHz, sampled at 20 kHz, and stored on a personal computer running pClamp 10 software (Molecular Devices) for post hoc analysis. Constitutive multiunit electrical activity was always recorded from the mesenteric nerve bundle even when the lumen was perfused with only Krebs buffer. Baseline recordings with Krebs buffer in the lumen were performed for 15 min, after which the luminal perfusate was switched to one containing Krebs buffer with substances to be tested (fluoxetine 30 μM, sertraline 10 μM, bupropion (WELLBUTRIN®) 10 μM, Lactobacillus rhamnosus JB-1 10^9 cfu/mL, or squalamine 10 μM). Recording in the presence of test substances was performed for up to 40 min after which the luminal perfusate was again switched to Krebs buffer and recording continued for up to 30 min.
Single units representing discharge from individual single vagal fibers were discriminated and identified by their unique spike waveform shape and amplitude (Rong et al., J Physiol 560: 867-881, 2004) using Dataview computer software (Heitler, Journal of Undergraduate Neuroscience Education 6: A1-A7, 2007). Dataview uses principal component analysis to sort the recorded multiunit spikes into individual single unit categories according to shape and amplitude (Heitler, Journal of Neuroscience Methods 185: 151-164, 2009).
Control and treatment periods were identified from event markers inserted at the time of recording. Then, for each channel (color-coded unit), spike bursts were detected using the “Poisson surprise” method devised by Legéndy & Salcman (Legendy & Salcman, J Neurophysiol 53: 926-939, 1985). A surprise was defined as −log 10(p), where p is the probability of a set of events occurring this close together by chance. […]

Test [3] has the same test system. The test can be described thus: Ex vivo vagal nerve fiber recording from mice orally fed antidepressants, lumen perfused with buffer only. Also noted: species or system BALB/c mice. The following applies: fed in the drinking water for 14 days; fluoxetine 18, sertraline 6, bupropion 6 mg/kg per day. As to the method:
The procedure described above in connection with Example 1 and 2 was repeated for the BALB/c mice orally fed with antidepressants fluoxetine (18 mg/kg per day), sertraline (6 mg/kg per day) and bupropion (WELLBUTRIN®) (6 mg/kg per day) in the drinking water for 14 days. Following the oral treatment, the mice were sacrificed and a jejunal segment with mesenteric tissue was recovered as described in Example 1. In this example, the lumens of the jejunal segments were, however, perfused only with KREPS buffer.
FIG. 16 illustrates the mean interval between spike firing, i.e., average inter-pulse durations, for luminal Krebs control, i.e., from control mice that have not been treated with any antidepressants, and for mice fed with fluoxetine, sertraline or bupropion (WELLBUTRIN®).

For a further test, the system named is vagal afferent. The settings on record: aged mice with reduced firing frequency; cited from earlier work.
In another test the test system is colonic motility. The settings on record: applied intraluminally in mice; cited from earlier work.
For test [4], the system named is patients with Parkinson's disease (PD) and severe constipation. The following applies: cited from earlier work.

Entries after “also recorded” stand apart in the source; their conditions may differ. Structures can show the parent of a compound that is named as a salt.

For the compound `CC(NC(C)(C)C)C(=O)c1cccc(Cl)c1` (stereo not drawn) [Bupropion, bupropion], in test [1], the “effect on depressive and anxiety behavior in vagotomized mice” value (“effect … in vagotomized mice” below) is reported as “present”; the “dependency of the effect on the vagus nerve” value (from here on “dependency of the effect”) was “not to be dependent on the vagus nerve”. Moreover, in test [2], the “Average inter-pulse duration, lower 95% CI” value is 896 ms; the “Average inter-pulse duration, upper 95% CI” value was found to be 1081 ms; the “Burst duration, lower 95% CI” value worked out at 412 ms; the “Burst duration, upper 95% CI” value is reported as 543 ms. Further, in test [2], the “Inter-burst duration, lower 95% CI” value is reported as 49779 ms; the “Inter-burst duration, upper 95% CI” value is reported as 66105 ms; the “Inter-pulse duration within bursts, lower 95% CI” value is 105 ms; the “Inter-pulse duration within bursts, upper 95% CI” value was 124 ms. Besides, in test [2], the “Fraction average inter-pulse duration” value was 0.2919, the Fraction burst duration amounted to 0.1778, the Fraction inter-burst duration is recorded as 1.152 and the “Fraction inter-pulse duration within bursts” value was 0.01576. Also, in test [3], the “average inter-pulse durations as compared to control mice” value is given as “no difference”.
Consider `CNCCC(Oc1ccc(C(F)(F)F)cc1)c1ccccc1` (stereo not drawn) [Fluoxetine, fluoxetine], for which, in test [1], the “depressive and anxiety behavior in mice” value was “decreased”; the “effect … in vagotomized mice” value is listed as “disappeared; also recorded: no effect”; the “dependency of the effect” value was “dependent on the vagus nerve”. Further, in test [2], the “Average inter-pulse duration, lower 95% CI” value was 612 ms; the “Average inter-pulse duration, upper 95% CI” value is 983 ms; the “Burst duration, lower 95% CI” value came to 510 ms; the “Burst duration, upper 95% CI” value is 771 ms. Further, in test [2], the “Inter-burst duration, lower 95% CI” value is listed as 11524 ms; the “Inter-burst duration, upper 95% CI” value stood at 44175 ms; the “Inter-pulse duration within bursts, lower 95% CI” value turned out to be 101 ms; the “Inter-pulse duration within bursts, upper 95% CI” value was 138 ms. In addition, in test [2], the “Fraction average inter-pulse duration” value was −0.3964, the Fraction burst duration was 0.6424, the Fraction inter-burst duration is −0.1795 and the “Fraction inter-pulse duration within bursts” value was 0.2705. Besides, in test [2] (listed as fluoxetine), the “Inter-burst duration, lower 95% CI” value is on record as 11 524 ms and the “Inter-burst duration, upper 95% CI” value was 44 175 ms.
Regarding `CN[C@H]1CC[C@@H](c2ccc(Cl)c(Cl)c2)c2ccccc21` [Sertraline, sertraline], in test [1], the “depressive and anxiety behavior in mice” value is on record as “decreased”; the “effect … in vagotomized mice” value is reported as “disappeared”; the “dependency of the effect” value is reported as “dependent on the vagus nerve; also recorded: same dependency of action”. In test [2], the “Average inter-pulse duration, lower 95% CI” value was determined as 386 ms; the “Average inter-pulse duration, upper 95% CI” value turned out to be 614 ms; the “Burst duration, lower 95% CI” value was determined as 516 ms; the “Burst duration, upper 95% CI” value was found to be 676 ms. Also, in test [2], the “Inter-burst duration, lower 95% CI” value is reported as 16160 ms; the “Inter-burst duration, upper 95% CI” value is given as 36270 ms; the “Inter-pulse duration within bursts, lower 95% CI” value is 87 ms; the “Inter-pulse duration within bursts, upper 95% CI” value turned out to be 110 ms. Further, in test [2], the “Fraction average inter-pulse duration” value was −0.1627, the Fraction burst duration is on record as 0.6184, the Fraction inter-burst duration was −0.1554 and the “Fraction inter-pulse duration within bursts” value stood at 0.1936. For the same compound, in test [2] (listed as sertraline), the “Inter-burst duration, lower 95% CI” value is given as 16 160 ms and the “Inter-burst duration, upper 95% CI” value is reported as 36 270 ms.
Regarding `CC(C)[C@@H](CC[C@@H](C)[C@H]1CC[C@H]2[C@@H]3[C@H](O)C[C@H]4C[C@@H](NCCCNCCCCN)CC[C@]4(C)[C@H]3CC[C@]12C)OS(=O)(=O)O` [Squalamine, 3(3β,5α,7α,24R)-3-({3-[(4-aminobutyl)amino]propyl}amino)-7-hydroxycholestan-24-yl hydrogen sulfate], the “vagal afferent firing frequency” value with vagal afferent was “increases”. In test [2], the “Average inter-pulse duration, lower 95% CI” value came out at 334 ms; the “Average inter-pulse duration, upper 95% CI” value amounted to 675 ms; the “Burst duration, lower 95% CI” value is 111 ms; the “Burst duration, upper 95% CI” value is 1954 ms. For the same compound, in test [2], the “Inter-burst duration, lower 95% CI” value was determined as 11233 ms; the “Inter-burst duration, upper 95% CI” value was found to be 34229 ms; the “Inter-pulse duration within bursts, lower 95% CI” value came out at 98 ms; the Inter-pulse duration within bursts, upper 95% CI turned out to be 136 ms. In addition, in test [2], the “Fraction average inter-pulse duration” value is −0.183, the Fraction burst duration was 0.6752, the Fraction inter-burst duration is −0.2957 and the “Fraction inter-pulse duration within bursts” value was found to be 0.1394. In test [2] (listed as squalamine), the “Burst duration, lower 95% CI” value is on record as 110 ms; the “Burst duration, upper 95% CI” value is listed as 1 954 ms; the “Inter-burst duration, lower 95% CI” value was 11 233 ms; the “Inter-burst duration, upper 95% CI” value was 34 229 ms. For the same compound, in test [2] (listed as squalamine), the “Inter-pulse duration within bursts, upper 95% CI” value was 136 ms. In test [2] (squalamine 10 μM in lumen), the “vagus code compared with other antidepressants” value is listed as “almost identical vagus code as sertraline”. Also, in the test on colonic motility, the “age and loperamide-related dysmotility” value is “reversed”; the “effects on colonic motility” value is “prokinetic effects”. Further, the relief of constipation entry in test [4] (increasing dosage schedule, 50 patients) is “positive beneficial effects”. Moreover, the “neurological symptoms in PD patients like hallucinations, sleep and circadian rhythm disturbances” value in test [4] (while patients were taking the drug) is reported as “attenuated or prevented”.
